Usually IC50 stands for the concentration needed to halve the response being measured.

Molecules are shown by their SMILES.

The target in test [1] is T1, NLRP3 (Homo sapiens, UniProt Q96P20). The test can be described thus: Human whole blood IL-1β release assay (LPS + nigericin, AlphaLisa). The class given is cell-based. Also on record: Plate out 80 μl of whole blood containing 1 μg/ml of LPS; from tissue; host or cells: human whole blood from healthy volunteer donors. The following applies: NLRP3 inhibitory activity, 1 μg/ml LPS, 3 hrs compound, nigericin 10 μM 1 hr, read-out: HWB IC50. Here is the method: For systemic delivery, the ability to inhibit NLRP3 when the compounds are present within the bloodstream is of great importance. For this reason, the NLRP3 inhibitory activity of a number of compounds in human whole blood was investigated in accordance with the following protocol.
T1 sequence (Q96P20 whole entry): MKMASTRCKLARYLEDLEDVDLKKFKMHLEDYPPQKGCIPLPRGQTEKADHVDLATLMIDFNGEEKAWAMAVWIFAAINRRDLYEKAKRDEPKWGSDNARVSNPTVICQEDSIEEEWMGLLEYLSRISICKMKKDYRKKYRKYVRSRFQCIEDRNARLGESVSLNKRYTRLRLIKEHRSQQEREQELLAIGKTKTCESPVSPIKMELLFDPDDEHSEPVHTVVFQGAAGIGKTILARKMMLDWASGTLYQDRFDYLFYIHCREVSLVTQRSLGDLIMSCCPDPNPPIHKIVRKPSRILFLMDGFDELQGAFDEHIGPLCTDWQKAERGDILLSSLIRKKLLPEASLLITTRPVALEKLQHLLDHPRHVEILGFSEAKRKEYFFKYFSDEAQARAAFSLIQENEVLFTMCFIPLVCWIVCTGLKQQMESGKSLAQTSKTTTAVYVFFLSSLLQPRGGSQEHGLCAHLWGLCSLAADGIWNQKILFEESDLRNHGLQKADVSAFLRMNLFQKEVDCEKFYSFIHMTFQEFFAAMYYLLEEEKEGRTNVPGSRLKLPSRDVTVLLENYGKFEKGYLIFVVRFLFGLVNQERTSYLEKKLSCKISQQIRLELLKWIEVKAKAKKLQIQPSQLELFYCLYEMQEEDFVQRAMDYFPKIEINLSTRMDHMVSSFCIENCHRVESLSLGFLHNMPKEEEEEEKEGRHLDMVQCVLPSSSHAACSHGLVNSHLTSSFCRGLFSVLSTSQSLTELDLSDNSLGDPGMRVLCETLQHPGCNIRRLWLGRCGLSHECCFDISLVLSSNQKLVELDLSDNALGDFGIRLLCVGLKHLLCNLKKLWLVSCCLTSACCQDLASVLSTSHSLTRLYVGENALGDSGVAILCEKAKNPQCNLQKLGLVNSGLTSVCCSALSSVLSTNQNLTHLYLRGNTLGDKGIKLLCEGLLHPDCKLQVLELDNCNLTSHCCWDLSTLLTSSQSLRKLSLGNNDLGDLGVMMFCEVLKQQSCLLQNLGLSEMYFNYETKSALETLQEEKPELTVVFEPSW
Human whole blood in Li-heparin tubes was obtained from healthy donors from a volunteer donor panel. • 1. Plate out 80 μl of whole blood containing 1 μg/ml of LPS in 96-well, clear bottom cell culture plate (Corning #3585) • 2. Add 10 μl compound (8 points half-log dilution with 10 μM top dose) or vehicle (DMSO 0.1% FAC) to the appropriate wells • 3. Incubate for 3 hrs at 37° C., 5% CO2 • 4. Add 10 μl nigericin (Sigma #N7143) (10 μM FAC) to all wells • 5. Incubate for 1 hr at 37° C., 5% CO2 • 6. […] IL-1β was measured according to the manufacturer protocol (Perkin Elmer-AlphaLisa IL-1 Kit AL220F-5000) • 8. IC50 data is fitted to a non-linear regression equation (log inhibitor vs response-variable slope 4-parameters)

The target of test [2] is T1, NLRP3. Put plainly: THP-1 cells pyroptosis assay (LPS + nigericin, resazurin readout). The class given is cell-based. The arrangement: Seed THP-1 cells (25,000 cells/well) containing 1.0 μg/ml LPS; host or cells: THP-1 cells. Particulars: NLRP3 inhibitory activity, 1.0 μg/ml LPS, 3 hrs compound, nigericin 5 μM 1 hr. Here is the method:
THP-1 cells (ATCC #TIB-202) were grown in RPMI containing L-glutamine (Gibco #11835) supplemented with 1 mM sodium pyruvate (Sigma #S8636) and penicillin (100 units/ml)/streptomycin (0.1 mg/ml) (Sigma #P4333) in 10% Fetal Bovine Serum (FBS) (Sigma #F0804). The cells were routinely passaged and grown to confluency (˜10^6 cells/ml). On the day of the experiment, THP-1 cells were harvested and resuspended into RPMI medium (without FBS). The cells were then counted and viability (>90%) checked by Trypan blue (Sigma #T8154). Appropriate dilutions were made to give a concentration of 625,000 cells/ml. To this diluted cell solution was added LPS (Sigma #L4524) to give a […] Final Assay Concentration (FAC). 40 μl of the final preparation was aliquoted into each well of a 96-well plate. The plate thus prepared was used for compound screening.
The following method step-by-step assay was followed for compound screening. • 1. Seed THP-1 cells (25,000 cells/well) containing 1.0 μg/ml LPS in 40 μl of RPMI medium (without FBS) in 96-well, black walled, clear bottom cell culture plates coated with poly-D-lysine (VWR #734-0317) • 2. Add 5 μl compound (8 points half-log dilution, with 10 μM top dose) or vehicle (DMSO 0.1% FAC) to the appropriate wells • 3. Incubate for 3 hrs at 37° C., 5% CO2 • 4. Add 5 μl nigericin (Sigma #N7143) (FAC 5 μM) to all wells • 5. Incubate for 1 hr at 37° C., 5% CO2 • 6. At the end of the incubation period, spin plates at 300×g for 3 mins and remove supernatant • 7. Then add 50 μl of resazurin (Sigma #R7017) (FAC 100 μM resazurin in RPMI medium without FBS) and incubate plates for a further 1-2 hrs at 37° C. and 5% CO2 • 8. Plates were read in an Envision reader at Ex 560 nm and Em 590 nm • 9. IC50 data is fitted to a non-linear regression equation (log inhibitor vs response-variable slope 4-parameters)

Consider `CC(C)c1cccc2c1CC(=O)NS(=O)(=O)c1ccn(n1)C(C)(C)COc1cc-2ccn1` [Example 1, 16,16-dimethyl-6-(propan-2-yl)-18-oxa-11λ^6-thia-10,15,20,24-tetraaza-tetracyclo[17-3-1-1^12,15.0^2,7]tetracosa-1(22),2(7),3,5,12(24),13,19(23),20-octaene-9,11,11-trione], for which the IC50 at NLRP3 [1] and on NLRP3 [2] was 1000 to 5000 nM throughout.

Regarding `Cc1ccc(C(C)C)c2c1-c1ccnc(c1)OCC(C)(C)n1ccc(n1)S(=O)(=O)NC(=O)C2` [Example 2], the half-maximal inhibitory concentration (IC50) lay in the range of 500 to 1000 nM on NLRP3 [1] and 1000 to 5000 nM at NLRP3 [2].

For the molecule `CC(C)c1cccc2c1CC(=O)NS(=O)(=O)c1cc(CN(C)C)n(n1)CCCCCOc1cc-2ccn1` [Example 3], the IC50 on NLRP3 [1] and at NLRP3 [2] was 5000 to 10000 nM each time.

Turning to `CC(C)c1cccc2c1CC(=O)NS(=O)(=O)c1ccn(n1)CCOc1cc-2ccn1` [Example 4], the values for the IC50 at NLRP3 [1] and on NLRP3 [2] were 5000 to 10000 nM and 1000 to 5000 nM, respectively.

Regarding `CC(C)c1cccc2c1CC(=O)NS(=O)(=O)c1cc(n(C(C)C)n1)CCOc1cc-2ccn1` [Example 10], the IC50 on NLRP3 [1] and on NLRP3 [2] was 1000 to 5000 nM each time.

On to `CC(C)c1cccc2c1CC(=O)NS(=O)(=O)c1cc(cc(C(C)(C)O)c1)CCOc1cc-2ccn1` [Example 11], for which the IC50 at NLRP3 [1] lay in the range of 1000 to 5000 nM; at NLRP3 [2], 100 to 500 nM.

On to `Cc1ccc(C(C)C)c2c1-c1ccnc(c1)OCC(C)(C)n1cc(F)c(n1)S(=O)(=O)NC(=O)C2` [Example 12], for which the IC50 on NLRP3 [1] and at NLRP3 [2] was 500 to 1000 nM in each case.

On to `Cc1ccc(C(C)C)c2c1-c1ccnc(c1)OCCn1cc(F)c(n1)S(=O)(=O)NC(=O)C2` [Example 13], for which the IC50 on NLRP3 [1] and on NLRP3 [2] was 1000 to 5000 nM throughout.

In the case of `CC(C)c1cc(F)cc2c1CC(=O)NS(=O)(=O)c1nn(cc1F)C(C)(C)COc1cc-2ccn1` [Example 15], the IC50 on NLRP3 [1] is 1000 to 5000 nM; at NLRP3 [2], 100 to 500 nM.

As for `CC(C)(O)c1cc2cc(c1)S(=O)(=O)NC(=O)Cc1c(ccc3c1CCC3)-c1ccnc(c1)OCC2` [Example 17, 17-(2-hydroxypropan-2-yl)-22-oxa-14λ^6-thia-13,24-diazapentacyclo-[21.3.1.1^15,19.0^2,10.0^5,9]octacosa-1(26),2,4,9,15,17,19(28),23(27),24-nonaene-12,14,14-trione], the results for the IC50 at NLRP3 [1] and on NLRP3 [2] were 1000 to 5000 nM and 500 to 1000 nM, respectively.

In the case of `COc1cn2nc1S(=O)(=O)NC(=O)Cc1c(cc(F)cc1C(C)C)-c1ccnc(c1)OCC2(C)C` [Example 19], the values for the IC50 at NLRP3 [1] and at NLRP3 [2] were 500 to 1000 nM and 100 to 500 nM, respectively.

With `CC(C)c1cc(F)cc2c1CC(=O)NS(=O)(=O)c1nn(cc1F)C1(CC1)COc1cc-2ccn1` [Example 20], the figures for the half-maximal inhibitory concentration (IC50) at NLRP3 [1] and at NLRP3 [2] were 1000 to 5000 nM and 500 to 1000 nM, respectively.

As to `CC(C)c1cccc2c1CC(=O)NS(=O)(=O)c1cnn(c1)CCOc1cc-2ccn1` [Example 21], the IC50 was in the range of 5000 to 10000 nM on NLRP3 [1] and 1000 to 5000 nM on NLRP3 [2].

As for `CC(C)c1cc(F)cc2c1CC(=O)NS(=O)(=O)c1cnn(c1)CCOc1cc-2ccn1` [Example 22], the IC50 lay in the range of 5000 to 10000 nM at NLRP3 [1] and 1000 to 5000 nM on NLRP3 [2].

Consider `Cc1nn2cc1S(=O)(=O)NC(=O)Cc1c(cccc1C(C)C)-c1ccnc(c1)OCC2(C)C` [Example 24], for which the results for the IC50 on NLRP3 [1] and on NLRP3 [2] were 1000 to 5000 nM and 500 to 1000 nM, respectively.

Turning to `CC1(C)COc2cc(ccn2)-c2cccc(C3CC3)c2CC(=O)NS(=O)(=O)c2nn1cc2F` [Example 27], the IC50 on NLRP3 [1] is 500 to 1000 nM; at NLRP3 [2], 1000 to 5000 nM.

On to `CC(C)c1cccc2c1CC(=O)NS(=O)(=O)c1nn(cc1F)C(C)(C)CCOc1cc-2ccn1` [Example 31], for which the IC50 on NLRP3 [1] and at NLRP3 [2] was 1000 to 5000 nM each time.

On to `CC(C)c1cccc2c1CC(=O)NS(=O)(=O)c1cn(cn1)C(C)(C)COc1cc-2ccn1` [Example 33], for which the values for the IC50 at NLRP3 [1] and at NLRP3 [2] were 1000 to 5000 nM and 500 to 1000 nM, respectively.

Consider `CC(C)c1cccc2c1CC(=O)NS(=O)(=O)c1cnn(n1)C(C)(C)COc1cc-2ccn1` [Example 36], for which the half-maximal inhibitory concentration (IC50) on NLRP3 [1] and on NLRP3 [2] was 1000 to 5000 nM in each case.

Consider `CC(C)c1cccc2c1CC(=O)NS(=O)(=O)c1nn(c3ncccc13)C(C)(C)COc1cc-2ccn1` [Example 37], for which the concentration for half-maximal inhibition (IC50) on NLRP3 [1] was in the range of 1000 to 5000 nM; on NLRP3 [2] it was 500 to 1000 nM.

Regarding `CC(C)c1cccc2c1CC(=O)NS(=O)(=O)c1nn(cc1F)-c1ncccc1COc1cc-2ccn1` [Example 38], the IC50 on NLRP3 [1] and at NLRP3 [2] was 1000 to 5000 nM in each case.

For `CC(C)c1cc(F)cc2c1CC(=O)NS(=O)(=O)c1nn(c(C(=O)N(C)C)c1F)C(C)(C)COc1cc-2ccn1` [Example 39], the IC50 at NLRP3 [1] and at NLRP3 [2] was 1000 to 5000 nM in each case.

With `CCN1CCc2c3nn(c2C1)C(C)(C)COc1cc(ccn1)-c1cc(F)cc(C(C)C)c1CC(=O)NS3(=O)=O` [Example 40], the concentration for half-maximal inhibition (IC50) at NLRP3 [1] and on NLRP3 [2] was 1000 to 5000 nM each time.

In the case of `CC(C)c1cc(F)cc2c1CC(=O)NS(=O)(=O)c1cc(C(=O)N(C)C)n(n1)C(C)(C)COc1cc-2ccn1` [Example 41], the IC50 at NLRP3 [1] and on NLRP3 [2] was 1000 to 5000 nM in each case.

`CC(C)c1cccc2c1CC(=O)NS(=O)(=O)c1ccn(n1)CCOc1cc-2cnn1` [Example 44, 6-(propan-2-yl)-18-oxa-11λ^6-thia-10,15,20,21,24-pentaazatetracyclo-[17.3.1.1^12,15.0^2,7]tetracosa-1(22),2(7),3,5,12(24),13,19(23),20-octaene-9,11,11-trione]: the IC50 at NLRP3 [1] lay within 5000 to 10000 nM; at NLRP3 [2], 1000 to 5000 nM.

Values taken from patent US20220389031A1, “MACROCYCLIC SULFONYLAMIDE DERIVATIVES USEFUL AS NLRP3 INHIBITORS” (Inflazome Limited, priority 2019, published 2022).
